# Tested on: small cell lung cancer cell line NCI-H209
# Test: ADC combined with PARP inhibitor, cell viability
# Assay type: cell-based, human
# Settings: olaparib 10 nM to 10 uM, six days
# Protocol: Briefly, the small cell lung cancer cell line NCI-H209, which expresses ˜10,000 copies of SEZ6L2 on the cell surface, was seeded onto 96 well plate at 5000 cells/well Immediately after seeding, 10 pM of 3E2-PBD or isotype control hIgG-PBD (bearing a drug antibody ratio (DAR) of 1.7 and 2.5 respectively) were added to the wells in complete culture medium. A PARP inhibitor (olaparib) was then added to these wells such that the final concentration ranged from 10 nM to 10 uM. The PARP inhibitor was also tested on cells without an ADC. Each treatment was replicated in 2 wells and after six days, the PARP inhibitor plus modulator-mediated PBD cytotoxicity was assessed by quantifying the remaining number of live cells using Cell Titer Glo™. Cell viability was graphed by Prism™ using ratio of cell viability of test conditions to that of control wells treated with growth medium only.
structure (smiles),measurement,value
"O=C(c1cc(Cc2n[nH]c(=O)c3ccccc23)ccc1F)N1CCN(C(=O)C2CC2)CC1 [olaparib, reference compound]","percent viable cells, PARP inhibitor alone",responded in a dose dependent manner
